Results on 1 substance are retold here after US6603058B1, “Non-human animal model for obesity and uses thereof” (Oklahoma Medical Research Foundation, priority 1998, dated 2003).

Holding throughout (type): in vivo, mouse
A short description of assay [1]: Weight change and food intake in wildtype and POMC null mutant mice under standard diet, standard diet plus MSH analog, or high fat diet. The conditions noted are these: for food intake, standard diet v. standard diet & MSH analog treatment / weight change, standard diet v. standard diet & MSH analog treatment: MSH analog i.p. 1 or 2 μg once daily. The procedure: P values were determined by ANOVA. If the major component of weight regulation through the melanocortinergic pathway was the regulation of feeding behavior, the observed changes in body weight in POMC null mutant mice should be paralleled by a similar pattern in food uptake. This, however, was not observed (FIGS. 5B and 5D and Table 1).

The nature of assay [2]: Daily intraperitoneal MSH analog treatment of POMC homozygous mutant and wildtype female mice: body weight change and food intake. The settings on record: for weight loss, share of excess weight: mutant female mice, 1 microgram (~1 nmol) i.p. daily; for weight loss in wildtype mice: wildtype non-obese littermates, peripheral (i.p.) daily treatment. The procedure:
To initially test for the effect of peripheral melanocortins on weight change, we selected the stable agonist [Ac-Cys^4, D-Phe^7, Cys^10] αMSH (4-13)(described in Cody et al., 1985, J. Med. Chem. 28, 583-588; incorporated herein by reference in its entirety). Briefly, [Ac-Cys^4,D-Phe^7, Cys^10] α-MSH (4-13) amide was obtained from Peninsula Laboratories, CA. Lyophilized powder was dissolved in water at 1 mg/ml, which was diluted in PBS to 10 μg/mL. During the experiments, mice were maintained on a normal 12h/12h light/dark cycle with food and water ad libitum. Mice were fed standard laboratory rodent diet (#5001).
In order to see whether the α-MSH analog has an effect on food intake, we compared weight change and food intake in these mice for one week (see bars in FIGS. 4A and 4B) under MSH analog treatment and after MSH analog treatment was stopped (FIGS. 4C and 4D). During one week under MSH analog treatment mutant mice lost 0.5 g, while wildtype littermates gained 0.3 g; the food intake during this time was equivalent in both groups (20.7 g in wildtypes, and 22.7 g in mutants).

The nature of assay [3]: Coat pigmentation of mice treated with MSH for two weeks. The source says: An effect of MSH could also be seen on coat pigmentation. […] Yellow coat pigmentation gradually reappeared after MSH treatment was terminated (data not shown).
[4] abbreviates: both on standard diet & MSH analog treatment.

For the substance “[Ac-Cys^4,D-Phe^7, Cys^10] α-MSH (4-13) amide [MSH analog]”, in assay [1] (setting [4]), the “food intake, wildtype v. mutant” value is “↑” and the “weight change, wildtype v. mutant” value was “↓”. In assay [1] (mutant mice), the “food intake, standard diet v. standard diet & MSH analog treatment” value is “decreases food intake and ↓”; the “weight change, standard diet v. standard diet & MSH analog treatment” value was “lose excess weight and ↓”. Also, in assay [1] (wildtype mice), the “food intake, standard diet v. standard diet & MSH analog treatment” value is “decreases food intake and ↓”; the “weight change, standard diet v. standard diet & MSH analog treatment” value is “←→”. For the same substance, the “weight loss, share of excess weight” value in assay [2] (by 2 weeks) is recorded as 46 % of excess weight. The “weight loss, share of excess weight” value in assay [2] (within one week) is given as 38 % of excess weight. Also, in assay [2] (mutant mice), the “body weight gained in one week after MSH analog treatment had been stopped for two weeks” value was 1.7 g, the “food intake during one week under MSH analog treatment” value was 22.7 g, the “food intake in one week after MSH analog treatment had been stopped for two weeks” value is listed as 35.7 g and the “time after stop of MSH injections until mutant mice started to gain weight” value is recorded as “about 10 days”. Further, in assay [2] (mutant mice treated peripherally), the “loss of excess weight after two weeks (summary statement)” value was “over 40 % of excess weight”. The “body weight lost during one week under MSH analog treatment” value in assay [2] (mutant mice, second week of treatment) is listed as 0.5 g. The “difference in food intake, mutants over wildtypes, after treatment stopped for two weeks” value in assay [2] (one week, p<0.005) turned out to be 11.5 g. Moreover, in assay [2] (wildtype littermates), the “body weight gained in one week after MSH analog treatment had been stopped for two weeks” value amounted to 0.3 g. Also, in assay [2] (wildtype littermates, second week of treatment), the “body weight gained during one week under MSH analog treatment” value was determined as 0.3 g. Further, in assay [2] (wildtype mice), the “food intake during one week under MSH analog treatment” value is on record as 20.7 g and the “food intake in one week after MSH analog treatment had been stopped for two weeks” value turned out to be 24.2 g. In addition, in assay [2] (listed as MSH-agonist), the “weight loss in wildtype mice” value was “no significant weight loss”. Besides, the “weight loss in wildtype mice” value in assay [2] (listed as stable α-MSH agonist) was “did not lose significant weight”. For the same substance, the “effect on coat pigmentation” value in assay [3] is listed as “lost their yellowish tinge”.
